{"source": "paper PMC7259601", "about": "(PLoS ONE, 2020)", "key": {"[1]": {"target": "T1, CCK1 (CCKA) (h) (agonist radioligand) (Homo sapiens, UniProt P32238)", "T1 construct": "purchased CEREP (Eurofins Cerep)", "assay": "CEREP Diversity Panel", "format": "binding", "procedure": "(§1) […]. MAO-A inhibition at 10 μM was 37%, in line with internal data."}, "[2]": {"target": "T2, TRH1 (h) (agonist radioligand) (Homo sapiens, UniProt P34981)", "T2 construct": "purchased CEREP (Eurofins Cerep)", "assay": "CEREP Diversity Panel", "format": "binding", "procedure": "as §1"}, "[3]": {"target": "T3, H2 (h) (antagonist radioligand) (Homo sapiens, UniProt P25021)", "T3 construct": "purchased CEREP (Eurofins Cerep)", "assay": "CEREP Diversity Panel", "format": "binding", "procedure": "as §1"}, "[4]": {"target": "T4, D2S (h) (antagonist radioligand) (Homo sapiens, UniProt P14416)", "T4 construct": "purchased CEREP (Eurofins Cerep)", "T4 sequence (P14416 1-414 isoform P14416-2)": "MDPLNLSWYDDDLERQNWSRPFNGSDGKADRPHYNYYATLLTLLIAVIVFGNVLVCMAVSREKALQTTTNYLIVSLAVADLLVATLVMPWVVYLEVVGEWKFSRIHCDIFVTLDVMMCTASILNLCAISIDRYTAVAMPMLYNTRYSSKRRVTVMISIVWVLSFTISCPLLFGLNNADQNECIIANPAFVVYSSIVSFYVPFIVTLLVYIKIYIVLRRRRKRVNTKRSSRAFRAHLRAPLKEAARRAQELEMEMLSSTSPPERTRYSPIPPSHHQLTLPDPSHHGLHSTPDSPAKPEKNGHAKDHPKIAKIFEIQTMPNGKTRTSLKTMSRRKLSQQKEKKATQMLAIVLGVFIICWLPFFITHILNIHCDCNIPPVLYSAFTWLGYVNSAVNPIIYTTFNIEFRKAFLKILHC", "assay": "CEREP Diversity Panel", "format": "binding", "procedure": "as §1"}, "[5]": {"target": "T5, B1 (h) (agonist radioligand) (Homo sapiens, UniProt P46663)", "T5 construct": "purchased CEREP (Eurofins Cerep)", "assay": "CEREP Diversity Panel", "format": "binding", "procedure": "as §1"}, "[6]": {"target": "T6, V1a (h) (agonist radioligand) (Homo sapiens, UniProt P37288)", "T6 construct": "purchased CEREP (Eurofins Cerep)", "assay": "CEREP Diversity Panel", "format": "binding", "procedure": "as §1"}, "[7]": {"target": "T7, NK2 (h) (agonist radioligand) (Homo sapiens, UniProt P21452)", "T7 construct": "purchased CEREP (Eurofins Cerep)", "assay": "CEREP Diversity Panel", "format": "binding", "procedure": "as §1"}, "[8]": {"target": "T8, 5-HT transporter (h) (antagonist radioligand) (Homo sapiens, UniProt P31645)", "T8 construct": "purchased CEREP (Eurofins Cerep)", "assay": "CEREP Diversity Panel", "format": "binding", "procedure": "as §1"}, "[9]": {"target": "T9, NOP (ORL1) (h) (agonist radioligand) (Homo sapiens, UniProt P41146)", "T9 construct": "purchased CEREP (Eurofins Cerep)", "assay": "CEREP Diversity Panel", "format": "binding", "procedure": "as §1"}, "[10]": {"target": "T10, GR (h) (agonist radioligand) (Homo sapiens, UniProt P04150)", "T10 construct": "purchased CEREP (Eurofins Cerep)", "assay": "CEREP Diversity Panel", "format": "binding", "procedure": "as §1"}, "[11]": {"target": "T11, H3 (h) (agonist radioligand) (Homo sapiens, UniProt Q9Y5N1)", "T11 construct": "purchased CEREP (Eurofins Cerep)", "T11 sequence (Q9Y5N1 whole entry)": "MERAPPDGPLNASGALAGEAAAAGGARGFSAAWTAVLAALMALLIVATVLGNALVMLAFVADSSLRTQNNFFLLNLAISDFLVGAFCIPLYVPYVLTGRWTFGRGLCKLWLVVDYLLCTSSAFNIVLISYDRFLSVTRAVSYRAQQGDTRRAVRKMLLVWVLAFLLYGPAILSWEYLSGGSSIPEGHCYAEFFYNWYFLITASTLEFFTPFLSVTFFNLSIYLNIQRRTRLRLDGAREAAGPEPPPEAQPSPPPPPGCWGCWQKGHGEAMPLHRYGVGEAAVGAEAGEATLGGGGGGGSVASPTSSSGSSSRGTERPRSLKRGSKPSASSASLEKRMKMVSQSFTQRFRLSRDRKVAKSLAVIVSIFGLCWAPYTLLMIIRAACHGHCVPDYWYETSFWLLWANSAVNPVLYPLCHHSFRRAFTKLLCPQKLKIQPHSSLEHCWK", "assay": "CEREP Diversity Panel", "format": "binding", "procedure": "as §1"}, "[12]": {"target": "T12, BLT1 (LTB4) (h) (agonist radioligand) (Homo sapiens, UniProt Q15722)", "T12 construct": "purchased CEREP (Eurofins Cerep)", "T12 sequence (Q15722 whole entry)": "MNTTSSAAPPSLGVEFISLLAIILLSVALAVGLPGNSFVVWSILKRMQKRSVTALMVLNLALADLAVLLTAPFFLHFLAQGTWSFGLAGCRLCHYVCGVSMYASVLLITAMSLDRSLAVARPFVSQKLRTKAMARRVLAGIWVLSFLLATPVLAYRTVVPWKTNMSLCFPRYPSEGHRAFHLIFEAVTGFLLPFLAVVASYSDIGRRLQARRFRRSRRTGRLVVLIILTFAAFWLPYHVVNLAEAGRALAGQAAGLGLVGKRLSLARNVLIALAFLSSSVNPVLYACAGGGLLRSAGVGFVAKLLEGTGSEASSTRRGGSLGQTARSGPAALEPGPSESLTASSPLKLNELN", "assay": "CEREP Diversity Panel", "format": "binding", "procedure": "as §1"}, "[13]": {"target": "T13, dopamine transporter (h) (antagonist radioligand) (Homo sapiens, UniProt Q01959)", "T13 construct": "purchased CEREP (Eurofins Cerep)", "assay": "CEREP Diversity Panel", "format": "binding", "procedure": "as §1"}, "[14]": {"target": "T14, MC4 (h) (agonist radioligand) (Homo sapiens, UniProt P32245)", "T14 construct": "purchased CEREP (Eurofins Cerep)", "assay": "CEREP Diversity Panel", "format": "binding", "procedure": "as §1"}, "[15]": {"target": "T15, choline transporter (CHT1) (h) (antagonist radioligand) (Homo sapiens, UniProt Q9GZV3)", "T15 construct": "purchased CEREP (Eurofins Cerep)", "T15 sequence (Q9GZV3 whole entry)": "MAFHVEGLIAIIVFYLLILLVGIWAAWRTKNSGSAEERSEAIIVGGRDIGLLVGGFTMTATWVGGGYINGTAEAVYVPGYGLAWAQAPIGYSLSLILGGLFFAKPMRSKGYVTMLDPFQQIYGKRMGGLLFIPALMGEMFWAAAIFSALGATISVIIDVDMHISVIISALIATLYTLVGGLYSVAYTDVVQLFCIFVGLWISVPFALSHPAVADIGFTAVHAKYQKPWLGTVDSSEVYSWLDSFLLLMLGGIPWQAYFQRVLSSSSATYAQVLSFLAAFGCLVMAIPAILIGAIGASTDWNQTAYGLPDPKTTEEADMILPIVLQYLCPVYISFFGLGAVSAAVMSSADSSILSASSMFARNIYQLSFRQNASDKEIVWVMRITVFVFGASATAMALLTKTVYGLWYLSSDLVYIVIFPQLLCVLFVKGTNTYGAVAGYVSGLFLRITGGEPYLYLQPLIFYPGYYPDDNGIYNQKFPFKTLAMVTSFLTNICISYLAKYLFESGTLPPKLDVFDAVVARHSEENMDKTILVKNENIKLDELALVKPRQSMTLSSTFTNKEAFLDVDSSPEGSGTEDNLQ", "assay": "CEREP Diversity Panel", "format": "binding", "procedure": "as §1"}, "[16]": {"target": "T16, PR (h) (agonist radioligand) (Homo sapiens, UniProt P06401)", "T16 construct": "purchased CEREP (Eurofins Cerep)", "assay": "CEREP Diversity Panel", "format": "binding", "procedure": "as §1"}, "[17]": {"target": "T17, A1 (h) (antagonist radioligand) (Homo sapiens, UniProt P30542)", "T17 construct": "purchased CEREP (Eurofins Cerep)", "assay": "CEREP Diversity Panel", "format": "binding", "procedure": "as §1"}, "[18]": {"target": "T18, A2A (h) (agonist radioligand) (Homo sapiens, UniProt P29274)", "T18 construct": "purchased CEREP (Eurofins Cerep)", "assay": "CEREP Diversity Panel", "format": "binding", "procedure": "as §1"}, "[19]": {"target": "T19, N neuronal a 4b 2 (h) (agonist radioligand) (Homo sapiens, UniProt P17787+P43681)", "T19 construct": "purchased CEREP (Eurofins Cerep)", "assay": "CEREP Diversity Panel", "format": "binding", "procedure": "as §1"}, "[20]": {"target": "T20, CB1 (h) (agonist radioligand) (Homo sapiens, UniProt P21554)", "T20 construct": "purchased CEREP (Eurofins Cerep)", "T20 sequence (P21554 whole entry)": "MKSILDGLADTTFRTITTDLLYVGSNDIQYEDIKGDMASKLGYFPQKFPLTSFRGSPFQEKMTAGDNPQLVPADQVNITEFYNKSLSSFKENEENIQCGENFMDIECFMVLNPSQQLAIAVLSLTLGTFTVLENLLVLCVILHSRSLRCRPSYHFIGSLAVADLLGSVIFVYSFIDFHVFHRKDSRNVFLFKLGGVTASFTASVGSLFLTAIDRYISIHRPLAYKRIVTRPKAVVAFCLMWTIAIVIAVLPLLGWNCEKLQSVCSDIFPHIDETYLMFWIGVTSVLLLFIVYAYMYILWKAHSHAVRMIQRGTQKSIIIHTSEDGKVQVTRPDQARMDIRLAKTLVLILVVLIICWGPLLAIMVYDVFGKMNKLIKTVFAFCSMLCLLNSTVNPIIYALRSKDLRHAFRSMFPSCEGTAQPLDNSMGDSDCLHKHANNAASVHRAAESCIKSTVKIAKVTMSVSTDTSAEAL", "assay": "CEREP Diversity Panel", "format": "binding", "procedure": "as §1"}, "[21]": {"target": "T21, ETB (h) (agonist radioligand) (Homo sapiens, UniProt P24530)", "T21 construct": "purchased CEREP (Eurofins Cerep)", "assay": "CEREP Diversity Panel", "format": "binding", "procedure": "as §1"}, "[22]": {"target": "T22, beta 2 (h) (agonist radioligand) (Homo sapiens, UniProt P07550)", "T22 construct": "purchased CEREP (Eurofins Cerep)", "assay": "CEREP Diversity Panel", "format": "binding", "procedure": "as §1"}, "[23]": {"target": "T23, D4.4 (h) (antagonist radioligand) (Homo sapiens, UniProt P21917)", "T23 construct": "purchased CEREP (Eurofins Cerep)", "T23 sequence (P21917 whole entry)": "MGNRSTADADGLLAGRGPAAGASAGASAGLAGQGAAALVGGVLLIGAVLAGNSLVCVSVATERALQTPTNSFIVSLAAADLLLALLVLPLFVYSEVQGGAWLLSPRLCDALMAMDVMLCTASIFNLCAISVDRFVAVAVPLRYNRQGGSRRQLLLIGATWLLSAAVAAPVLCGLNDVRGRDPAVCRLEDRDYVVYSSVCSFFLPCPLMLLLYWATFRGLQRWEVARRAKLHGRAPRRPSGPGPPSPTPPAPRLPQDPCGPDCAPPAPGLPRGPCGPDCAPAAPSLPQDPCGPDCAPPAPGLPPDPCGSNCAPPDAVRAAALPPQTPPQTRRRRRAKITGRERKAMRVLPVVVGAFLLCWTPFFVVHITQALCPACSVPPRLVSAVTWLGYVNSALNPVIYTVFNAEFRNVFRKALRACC", "assay": "CEREP Diversity Panel", "format": "binding", "procedure": "as §1"}, "[24]": {"target": "T24, beta 1 (h) (agonist radioligand) (Homo sapiens, UniProt P08588)", "T24 construct": "purchased CEREP (Eurofins Cerep)", "assay": "CEREP Diversity Panel", "format": "binding", "procedure": "as §1"}, "[25]": {"target": "T25, PAR1 (h) (agonist radioligand) (Homo sapiens, UniProt P25116)", "T25 construct": "purchased CEREP (Eurofins Cerep)", "assay": "CEREP Diversity Panel", "format": "binding", "procedure": "as §1"}, "[26]": {"target": "T26, AT2 (h) (agonist radioligand) (Homo sapiens, UniProt P50052)", "T26 construct": "purchased CEREP (Eurofins Cerep)", "T26 sequence (P50052 whole entry)": "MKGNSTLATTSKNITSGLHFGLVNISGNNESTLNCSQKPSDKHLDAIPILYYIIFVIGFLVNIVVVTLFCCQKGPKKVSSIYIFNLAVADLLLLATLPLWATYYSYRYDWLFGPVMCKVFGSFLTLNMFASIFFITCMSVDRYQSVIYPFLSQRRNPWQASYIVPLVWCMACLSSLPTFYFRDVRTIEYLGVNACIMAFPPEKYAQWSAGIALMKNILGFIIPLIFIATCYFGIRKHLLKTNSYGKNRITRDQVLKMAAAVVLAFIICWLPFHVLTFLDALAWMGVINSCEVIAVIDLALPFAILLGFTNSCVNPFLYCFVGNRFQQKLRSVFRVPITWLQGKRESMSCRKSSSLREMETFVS", "assay": "CEREP Diversity Panel", "format": "binding", "procedure": "as §1"}, "[27]": {"target": "T27, CysLT1 (LTD4) (h) (agonist radioligand) (Homo sapiens, UniProt Q9Y271)", "T27 construct": "purchased CEREP (Eurofins Cerep)", "T27 sequence (Q9Y271 whole entry)": "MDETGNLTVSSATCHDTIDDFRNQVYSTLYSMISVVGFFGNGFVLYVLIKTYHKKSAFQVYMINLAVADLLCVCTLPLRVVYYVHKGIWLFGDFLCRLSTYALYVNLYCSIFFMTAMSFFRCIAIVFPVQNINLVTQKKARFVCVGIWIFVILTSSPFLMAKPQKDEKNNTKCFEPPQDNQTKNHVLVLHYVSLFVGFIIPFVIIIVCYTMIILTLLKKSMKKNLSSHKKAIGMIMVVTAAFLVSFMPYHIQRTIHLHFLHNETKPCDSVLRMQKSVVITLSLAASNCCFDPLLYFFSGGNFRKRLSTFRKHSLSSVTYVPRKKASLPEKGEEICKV", "assay": "CEREP Diversity Panel", "format": "binding", "procedure": "as §1"}, "[28]": {"target": "T28, IP (PGI2) (h) (agonist radioligand) (Homo sapiens, UniProt P43119)", "T28 construct": "purchased CEREP (Eurofins Cerep)", "assay": "CEREP Diversity Panel", "format": "binding", "procedure": "as §1"}, "[29]": {"target": "T29, CRF1 (h) (agonist radioligand) (Homo sapiens, UniProt P34998)", "T29 construct": "purchased CEREP (Eurofins Cerep)", "assay": "CEREP Diversity Panel", "format": "binding", "procedure": "as §1"}, "[30]": {"target": "T30, PPARg (h) (agonist radioligand) (Homo sapiens, UniProt P37231)", "T30 construct": "purchased CEREP (Eurofins Cerep)", "T30 sequence (P37231 whole entry)": "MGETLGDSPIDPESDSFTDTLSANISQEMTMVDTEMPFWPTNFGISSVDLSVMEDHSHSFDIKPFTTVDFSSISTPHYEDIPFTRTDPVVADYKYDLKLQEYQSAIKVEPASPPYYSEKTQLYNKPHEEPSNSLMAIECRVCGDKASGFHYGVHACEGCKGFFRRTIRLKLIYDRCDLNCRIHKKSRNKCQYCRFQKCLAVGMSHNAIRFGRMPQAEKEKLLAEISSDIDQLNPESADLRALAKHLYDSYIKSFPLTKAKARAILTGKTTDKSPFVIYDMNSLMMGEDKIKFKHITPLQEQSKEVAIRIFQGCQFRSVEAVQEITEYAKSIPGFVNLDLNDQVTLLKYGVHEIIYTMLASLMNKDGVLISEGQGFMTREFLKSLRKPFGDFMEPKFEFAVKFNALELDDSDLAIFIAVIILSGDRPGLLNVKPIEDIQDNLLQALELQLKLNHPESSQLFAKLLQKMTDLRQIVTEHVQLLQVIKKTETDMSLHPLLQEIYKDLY", "assay": "CEREP Diversity Panel", "format": "binding", "procedure": "as §1"}, "[31]": {"target": "T31, ETA (h) (agonist radioligand) (Homo sapiens, UniProt P25101)", "T31 construct": "purchased CEREP (Eurofins Cerep)", "assay": "CEREP Diversity Panel", "format": "binding", "procedure": "as §1"}, "[32]": {"target": "T32, B2 (h) (agonist radioligand) (Homo sapiens, UniProt P30411)", "T32 construct": "purchased CEREP (Eurofins Cerep)", "T32 sequence (P30411 whole entry)": "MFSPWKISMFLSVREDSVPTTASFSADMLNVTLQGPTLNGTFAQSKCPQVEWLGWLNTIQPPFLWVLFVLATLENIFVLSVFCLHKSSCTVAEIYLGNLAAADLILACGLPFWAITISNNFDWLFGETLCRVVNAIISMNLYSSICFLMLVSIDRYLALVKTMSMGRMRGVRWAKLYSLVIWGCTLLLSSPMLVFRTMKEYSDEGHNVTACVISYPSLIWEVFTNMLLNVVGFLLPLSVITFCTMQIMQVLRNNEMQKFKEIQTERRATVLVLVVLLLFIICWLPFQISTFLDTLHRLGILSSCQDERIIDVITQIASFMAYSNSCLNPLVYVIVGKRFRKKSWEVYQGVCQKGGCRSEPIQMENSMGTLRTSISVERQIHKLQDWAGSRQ", "assay": "CEREP Diversity Panel", "format": "binding", "procedure": "as §1"}, "[33]": {"target": "T33, Mouse recombinant SMOX (Mus musculus, UniProt Q99K82)", "T33 construct": "gift: Paolo Mariottini, Department of Biology, University of Roma", "T33 sequence (Q99K82 whole entry)": "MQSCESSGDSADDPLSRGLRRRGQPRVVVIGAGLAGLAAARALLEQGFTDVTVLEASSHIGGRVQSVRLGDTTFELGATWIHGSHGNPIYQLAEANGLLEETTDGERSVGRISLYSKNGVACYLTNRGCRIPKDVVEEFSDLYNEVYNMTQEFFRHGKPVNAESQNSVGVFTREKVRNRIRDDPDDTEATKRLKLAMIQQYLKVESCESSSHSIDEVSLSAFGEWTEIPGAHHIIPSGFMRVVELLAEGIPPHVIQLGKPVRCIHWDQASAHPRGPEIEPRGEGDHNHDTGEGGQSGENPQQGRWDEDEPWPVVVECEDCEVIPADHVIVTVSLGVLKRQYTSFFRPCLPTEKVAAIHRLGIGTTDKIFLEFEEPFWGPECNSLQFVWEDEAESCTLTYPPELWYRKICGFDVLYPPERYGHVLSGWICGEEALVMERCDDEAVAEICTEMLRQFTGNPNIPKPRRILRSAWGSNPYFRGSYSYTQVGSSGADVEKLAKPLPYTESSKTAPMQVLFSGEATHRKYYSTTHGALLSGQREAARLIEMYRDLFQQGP", "assay": "SMOX inhibition assay", "format": "biochemical", "procedure": "Mouse recombinant SMOX [4] was provided by Paolo Mariottini (Department of Biology, University of Roma). The biochemical activity was measured by its ability to oxidize spermine (specific substrate for SMOX) and produce H2O2 using a horseradish peroxidase coupled assay. The assay buffer for the mSMOX reaction was 100 mM Sodium Phosphate pH 8.0. The inhibition was monitored during 10 min in the presence of KM spermine peptide."}}}
{"smiles": "Nc1nnc(CN[C@@H]2C[C@H]2c2ccc(OCc3ccccc3)cc2)o1", "note": "[ORY-2001, vafidemstat]", "values": [{"measurement": "inhibition at 10 µM", "setting": "[1]", "result": -2, "unit": "%"}, {"measurement": "inhibition at 10 µM", "setting": "[2]", "result": 3, "unit": "%"}, {"measurement": "inhibition at 10 µM", "setting": "[3]", "result": -3, "unit": "%"}, {"measurement": "inhibition at 10 µM", "setting": "[4]", "result": -8, "unit": "%"}, {"measurement": "inhibition at 10 µM", "setting": "[5]", "result": -1, "unit": "%"}, {"measurement": "inhibition at 10 µM", "setting": "[6]", "result": 1, "unit": "%"}, {"measurement": "inhibition at 10 µM", "setting": "[7]", "result": 2, "unit": "%"}, {"measurement": "inhibition at 10 µM", "setting": "[8]", "result": 2, "unit": "%"}, {"measurement": "inhibition at 10 µM", "setting": "[9]", "result": 0, "unit": "%"}, {"measurement": "inhibition at 10 µM", "setting": "[10]", "result": -9, "unit": "%"}, {"measurement": "inhibition at 10 µM", "setting": "[11]", "result": -1, "unit": "%"}, {"measurement": "inhibition at 10 µM", "setting": "[12]", "result": 33, "unit": "%"}, {"measurement": "inhibition at 10 µM", "setting": "[13]", "result": 33, "unit": "%"}, {"measurement": "inhibition at 10 µM", "setting": "[14]", "result": 7, "unit": "%"}, {"measurement": "inhibition at 10 µM", "setting": "[15]", "result": -2, "unit": "%"}, {"measurement": "inhibition at 10 µM", "setting": "[16]", "result": -11, "unit": "%"}, {"measurement": "inhibition at 10 µM", "setting": "[17]", "result": 0, "unit": "%"}, {"measurement": "inhibition at 10 µM", "setting": "[18]", "result": -8, "unit": "%"}, {"measurement": "inhibition at 10 µM", "setting": "[19]", "result": -3, "unit": "%"}, {"measurement": "inhibition at 10 µM", "setting": "[20]", "result": 5, "unit": "%"}, {"measurement": "inhibition at 10 µM", "setting": "[21]", "result": -8, "unit": "%"}, {"measurement": "inhibition at 10 µM", "setting": "[22]", "result": 5, "unit": "%"}, {"measurement": "inhibition at 10 µM", "setting": "[23]", "result": 9, "unit": "%"}, {"measurement": "inhibition at 10 µM", "setting": "[24]", "result": 7, "unit": "%"}, {"measurement": "inhibition at 10 µM", "setting": "[25]", "result": -2, "unit": "%"}, {"measurement": "inhibition at 10 µM", "setting": "[26]", "result": -6, "unit": "%"}, {"measurement": "inhibition at 10 µM", "setting": "[27]", "result": 4, "unit": "%"}, {"measurement": "inhibition at 10 µM", "setting": "[28]", "result": 31, "unit": "%"}, {"measurement": "inhibition at 10 µM", "setting": "[29]", "result": 18, "unit": "%"}, {"measurement": "inhibition at 10 µM", "setting": "[30]", "result": 4, "unit": "%"}, {"measurement": "inhibition at 10 µM", "setting": "[31]", "result": -23, "unit": "%"}, {"measurement": "inhibition at 10 µM", "setting": "[32]", "result": -5, "unit": "%"}, {"measurement": "inhibition at 10 µM", "setting": "[33]", "result": 31, "unit": "%"}]}
